This is an account of results in US9623031B2, “Compositions, methods and kits for treating cancer” (priority 2011, dated 2017).

Experiment [1] concerns blast crisis CML cells from a patient (#011711). Put plainly: Blast crisis CML patient cells: cytospin and annexin V apoptosis. The experiment is classed as cell-based, human. As for the experimental part:
An experiment involving a cytospin of Blast crisis CML (011711) and Geimsa stain was performed. Blast crisis CML were cultured in IMDM with BIT, LDL, L-Glu and treated with PBS or 100 nM Δ^12-PGJ3 for 12 hrs. Cells were collected and slides were done by Cytospin. Cytospin slides were stained with Wright Geimsa stain and pictures (100×) were recorded on a Material microscope.
In this experiment, 110,000/well primary AML cells were cultured in above specified media for 6 and 12 hrs. Cells were collected and washed once with ice cold PBS. The cells were resuspended in 200 ul 1× Apoptosis buffer with annexin-V PE to all tubes. The cells were washed in PBS and resuspended in 600 ul PBS and transfer into flow tubes and analyzed for apoptosis (Annexin V+ cells) on FC-500. […] In this experiment, 110,000/well AML cells were cultured in earlier mentioned media for 6 and 12 hrs. Cells were collected and washed once in PBS and resuspended in 200 ul PBS and blocked with FC receptor antibody 10 mins RT. The following antibodies were added: CD38, CD123, CD34, CD117 (BD bioscience) for 1 hr on ice. Cells were washed in PBS once and resuspended in 200 ul of apoptotic buffer, and annexin V was added and incubated for 15 mins. Apoptotic cells (Annexin V+ cells) were counted by flow cytometry. […] Apoptotic cells (Annexin V+ cells) were counted by flow cytometry.

The next experiment concerns LSCs. Put plainly: Apoptosis of LSCs as summarised in the discussion (model not specified or both models). It is filed as cell-based, mouse.
The subject of experiment [2] is p53. Nature of the experiment: p53 expression in FV-LSCs treated ex vivo (RT-PCR, nuclear extracts). It is filed as cell-based, mouse. As to conditions: 12 h.
Experiment [3] deals with p53. Put plainly: p53 expression in BCR-ABL+ LSCs treated ex vivo. It is filed as cell-based, mouse. Conditions: 25 nM ex vivo.
Another experiment relates to NF-κB. Nature of the experiment: NF-κB activation in sorted BCR-ABL+ LSCs (EMSA, Western blot). It is filed as cell-based, mouse. Conditions: 25 nM, 0-6 h. Here is the method:
The effect of Δ^12-PGJ3 on NF-κB and PPAPγ was examined. RAW264.7 macrophages were pretreated with DMSO, Δ^12-PGJ3 at 0.25, or 1.0 μM and subsequently stimulated with 100 ng/mL E. coli LPS for 4 h. The nuclear extracts were prepared and the binding of NΦκB to a ^32P-labeled consensus double stranded oligonucleotide probe was examined using gel shift analysis. NS=non-specific band. Lanes 1-5 represent untreated, LPS alone, DMSO+LPS, Δ^12-PGJ3 (0.25 μM)+LPS, and Δ^12-PGJ3 (1 μM)+LPS, respectively. BCR-ABL LSCs were sorted from spleens, plated, and treated with PBS, 25 nM Δ^12-PGJ3, or 9,10-dihydro 15d-PGJ2 for 0, 2 or 6 h. The cells were harvested and nuclear extracts were prepared using standard techniques. Ten μg of nuclear protein was used from each sample for the gel-shift reaction. As a positive control for NF-κB, nuclear extract from LPS-treated murine (RAW264.7) macrophages was used. Anti-p50 Ab was used with this positive control for a supershift, and excess ‘cold’ probe was used with the positive control as a ‘cold competitor’. A Western blot analysis was performed of the above-mentioned nuclear extracts from BCR-ABL LSCs treated with PBS, Δ^12-PGJ3 or 9,10-dihydro-15d-PGJ2 for various time periods (0-6 h) probed with anti-p65 and anti-β-actin antibodies. […]

With `CC/C=C\C[C@H](O)C/C=C1/C(=O)C=C[C@@H]1C/C=C\CCCC(=O)O` [Δ^12-PGJ3, Δ^12-prostaglandin J3], the “cell death, cytospin with Wright Geimsa stain” value in experiment [1] (100 nM, 12 hrs) is listed as “death of blast-crisis CML cells”. Further, the “apoptosis (Annexin V+ cells)” value in experiment [1] (6 and 12 hrs) was “induces apoptosis in BC-CML primary patient cells”. For the same compound, the “targeting of LSCs for apoptosis” value in the experiment on LSCs (FV-induced leukemia and BCR-ABL+ retrovirus-based murine CML model) is listed as “targeted LSCs for apoptosis”. Further, the IC50 in the experiment on LSCs (LSC type not specified, read-out: IC50, concentration required to cause apoptosis of LSCs) is 7 nM. For the same compound, the “p53 expression at transcript level” value in the experiment with p53 [2] (10 or 25 nM) is “significant upregulation of p53 expression”. In addition, the “nuclear levels of p53 protein” value in the experiment on p53 [2] (sorted LSC) is “increase in the nuclear levels of p53 protein”. For the same compound, the “p53 mRNA” value in the experiment on p53 [3] is listed as “increase in p53 transcription”. Further, the “NF-κB activation, EMSA and Western blot of nuclear extracts” value in the experiment on NF-κB is given as “lack of activation of NF-κB”.
